{
  "source": "paper PMC8819291",
  "about": "“Adaptively evolved human oral actinomyces‐sourced defensins show therapeutic potential” (EMBO Molecular Medicine, 2021)",
  "key": {"[1]": {"test_system": "SP D39", "experiment": "Mouse lung infection model", "experimental": "To this end, ICR female mice (30 g each mouse; 9–10 weeks of age) were anesthetized with 1.25% 2,2,2‐Tribromoethanol (Avertin) (Macklin, Shanghai, China) and hung by their front teeth on a steel wire. Then, they were inoculated intranasally with 10–20 µl bacterial suspension of SP D39 of fresh overnight culture (1.5 × 10^6 CFU per mouse) and then were removed from the wire to their cages. A control group of untreated mice was included. […] Mice were treated with penicillin as a positive control. At 48 h post‐infection, the mice were sacrificed and lungs removed and homogenized in 0.9% saline. Colony counts from lung homogenates were determined and the total number of colonies/lungs per mouse was calculated. Schematic representation is provided in Appendix Fig S16B."}, "[2]": {"target": "Kv4.3 (Homo sapiens, UniProt Q9UK17)", "sequence (Q9UK17 whole entry)": "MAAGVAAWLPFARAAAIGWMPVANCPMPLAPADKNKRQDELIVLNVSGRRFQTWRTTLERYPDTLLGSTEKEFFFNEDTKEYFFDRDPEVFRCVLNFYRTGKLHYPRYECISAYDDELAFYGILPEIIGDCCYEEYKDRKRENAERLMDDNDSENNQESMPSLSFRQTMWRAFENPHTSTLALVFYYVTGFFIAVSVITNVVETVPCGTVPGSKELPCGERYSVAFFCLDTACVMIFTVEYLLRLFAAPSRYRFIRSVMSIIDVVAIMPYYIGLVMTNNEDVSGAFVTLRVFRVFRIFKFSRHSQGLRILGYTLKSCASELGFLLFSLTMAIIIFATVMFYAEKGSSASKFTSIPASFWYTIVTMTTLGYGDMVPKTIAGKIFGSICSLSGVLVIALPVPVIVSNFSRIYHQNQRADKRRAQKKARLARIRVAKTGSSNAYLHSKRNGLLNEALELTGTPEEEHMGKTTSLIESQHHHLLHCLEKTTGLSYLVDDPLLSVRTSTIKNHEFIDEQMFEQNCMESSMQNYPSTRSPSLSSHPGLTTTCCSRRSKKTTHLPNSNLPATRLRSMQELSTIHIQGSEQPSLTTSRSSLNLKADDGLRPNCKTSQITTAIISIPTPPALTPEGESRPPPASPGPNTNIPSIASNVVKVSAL", "conditions": "100 μM AMSIN", "experimental": "(§1) For the expression of Nav1.5, Kv1.4, Kv1.5, Kv2.1, Kv4.3, and hERG in Xenopus oocytes, the linearized plasmids were transcribed using the T7 or SP6 mMESSAGE‐mMACHINE transcription kit (Ambion). The harvesting of stage V–VI oocytes from an anesthetized female Xenopus laevis frog was previously described (Zhu et al, [2020]). Oocytes were injected with 50 nl of cRNA at a concentration of 1 ng/nl using a micro‐injector (Drummond Scientific, USA). The oocytes were incubated in a solution containing (in mM): NaCl, 96; KCl, 2; CaCl2, 1.8; MgCl2, 2 and HEPES, 5 (pH 7.4), supplemented with 50 mg/l gentamycin sulfate. Two‐electrode voltage‐clamp recordings were performed at room temperature (18–22°C) using a Geneclamp 500 amplifier (Axon Instruments, USA) controlled by a pClamp data acquisition system (Axon Instruments, USA). Whole‐cell currents from oocytes were recorded 1–4 days after injection. Bath solution composition was (in mM): NaCl, 96; KCl, 2; CaCl2, 1.8; MgCl2, 2 and HEPES, 5 (pH 7.4). Voltage and current electrodes were filled with 3 M KCl. Resistances of both electrodes were kept between 0.7 and 1.5 M Ω. Elicited currents were sampled at 1 kHz and filtered at 0.5 kHz (for potassium currents) or sampled at 20 kHz and filtered at 2 kHz (for sodium currents) using a four‐pole low‐pass Bessel filter. […] Current traces of hERG channels were elicited by applying a +40 mV prepulse for 2 s followed by a step to −120 mV for 2 s."}, "[3]": {"target": "Kv1.5 (Homo sapiens, UniProt P22460)", "sequence (P22460 whole entry)": "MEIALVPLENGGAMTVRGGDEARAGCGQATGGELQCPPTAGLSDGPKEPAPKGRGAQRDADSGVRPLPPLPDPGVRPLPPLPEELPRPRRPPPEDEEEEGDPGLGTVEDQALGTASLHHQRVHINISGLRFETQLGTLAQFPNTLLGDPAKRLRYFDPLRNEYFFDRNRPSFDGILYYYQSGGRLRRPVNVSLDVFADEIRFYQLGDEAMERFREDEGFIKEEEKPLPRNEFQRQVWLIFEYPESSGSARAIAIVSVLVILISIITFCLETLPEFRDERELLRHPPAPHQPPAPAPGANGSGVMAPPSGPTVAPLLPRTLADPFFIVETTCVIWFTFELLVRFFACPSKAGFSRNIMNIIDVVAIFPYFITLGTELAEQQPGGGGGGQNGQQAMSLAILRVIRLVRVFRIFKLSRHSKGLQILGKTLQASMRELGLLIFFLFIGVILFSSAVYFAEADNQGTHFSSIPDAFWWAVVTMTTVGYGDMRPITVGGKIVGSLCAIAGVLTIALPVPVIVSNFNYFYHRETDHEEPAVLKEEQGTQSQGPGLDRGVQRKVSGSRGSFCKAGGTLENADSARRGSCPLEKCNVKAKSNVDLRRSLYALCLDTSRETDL", "conditions": "100 μM AMSIN", "experimental": "as §1"}, "[4]": {"target": "Kv2.1 (Homo sapiens, UniProt Q14721)", "sequence (Q14721 whole entry)": "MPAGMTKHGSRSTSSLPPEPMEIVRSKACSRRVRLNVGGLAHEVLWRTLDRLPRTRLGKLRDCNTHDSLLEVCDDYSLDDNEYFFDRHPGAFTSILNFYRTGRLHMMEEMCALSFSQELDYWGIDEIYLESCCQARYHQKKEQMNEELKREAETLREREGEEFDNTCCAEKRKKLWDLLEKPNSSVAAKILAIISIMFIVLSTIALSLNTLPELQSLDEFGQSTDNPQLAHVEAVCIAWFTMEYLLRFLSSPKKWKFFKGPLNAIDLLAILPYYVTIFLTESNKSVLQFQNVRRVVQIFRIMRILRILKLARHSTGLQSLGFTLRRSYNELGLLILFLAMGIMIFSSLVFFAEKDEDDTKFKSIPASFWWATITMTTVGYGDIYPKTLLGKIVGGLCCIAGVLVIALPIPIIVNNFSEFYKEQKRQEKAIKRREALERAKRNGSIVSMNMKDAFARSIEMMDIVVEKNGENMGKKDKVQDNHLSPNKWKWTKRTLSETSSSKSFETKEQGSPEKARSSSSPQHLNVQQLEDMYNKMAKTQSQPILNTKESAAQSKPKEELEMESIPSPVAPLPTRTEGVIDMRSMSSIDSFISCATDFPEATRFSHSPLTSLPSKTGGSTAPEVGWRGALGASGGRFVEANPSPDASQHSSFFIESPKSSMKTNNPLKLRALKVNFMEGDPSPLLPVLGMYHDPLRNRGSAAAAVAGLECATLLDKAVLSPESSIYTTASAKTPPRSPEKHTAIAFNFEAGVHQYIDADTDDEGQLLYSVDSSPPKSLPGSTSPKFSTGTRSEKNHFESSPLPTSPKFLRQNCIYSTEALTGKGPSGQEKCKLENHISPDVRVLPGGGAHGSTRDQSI", "conditions": "100 μM AMSIN", "experimental": "as §1"}, "[5]": {"target": "hERG (Homo sapiens, UniProt Q12809)", "sequence (Q12809 whole entry)": "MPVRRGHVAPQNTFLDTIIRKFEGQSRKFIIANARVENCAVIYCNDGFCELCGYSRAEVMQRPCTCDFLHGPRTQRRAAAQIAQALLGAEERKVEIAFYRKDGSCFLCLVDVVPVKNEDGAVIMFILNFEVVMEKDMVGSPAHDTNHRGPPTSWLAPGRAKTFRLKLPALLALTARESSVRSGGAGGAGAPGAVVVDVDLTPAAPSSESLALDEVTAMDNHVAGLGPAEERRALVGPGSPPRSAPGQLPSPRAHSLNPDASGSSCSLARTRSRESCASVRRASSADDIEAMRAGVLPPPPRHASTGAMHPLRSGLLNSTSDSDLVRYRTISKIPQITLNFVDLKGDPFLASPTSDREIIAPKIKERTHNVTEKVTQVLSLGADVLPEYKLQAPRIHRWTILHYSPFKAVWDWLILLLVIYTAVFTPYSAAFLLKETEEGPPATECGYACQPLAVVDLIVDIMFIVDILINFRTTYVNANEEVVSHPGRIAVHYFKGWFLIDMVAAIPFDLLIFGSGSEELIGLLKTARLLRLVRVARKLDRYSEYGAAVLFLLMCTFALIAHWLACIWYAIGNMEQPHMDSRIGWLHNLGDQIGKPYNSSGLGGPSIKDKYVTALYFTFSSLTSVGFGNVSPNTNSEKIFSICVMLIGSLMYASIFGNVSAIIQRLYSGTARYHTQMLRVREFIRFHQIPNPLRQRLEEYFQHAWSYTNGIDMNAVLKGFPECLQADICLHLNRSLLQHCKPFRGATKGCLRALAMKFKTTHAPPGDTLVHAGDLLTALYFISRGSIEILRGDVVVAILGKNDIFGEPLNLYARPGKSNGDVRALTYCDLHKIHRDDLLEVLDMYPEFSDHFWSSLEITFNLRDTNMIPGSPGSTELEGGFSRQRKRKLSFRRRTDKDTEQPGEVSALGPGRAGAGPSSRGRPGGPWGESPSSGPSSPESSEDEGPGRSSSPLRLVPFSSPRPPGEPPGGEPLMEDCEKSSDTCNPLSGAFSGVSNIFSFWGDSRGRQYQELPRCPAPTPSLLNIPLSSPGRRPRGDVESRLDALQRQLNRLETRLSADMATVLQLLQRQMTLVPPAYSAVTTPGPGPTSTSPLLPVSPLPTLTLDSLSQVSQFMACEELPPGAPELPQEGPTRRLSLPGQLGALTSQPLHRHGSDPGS", "conditions": "100 μM AMSIN", "experimental": "as §1"}, "[6]": {"target": "Nav1.5 (Homo sapiens, UniProt Q14524)", "conditions": "100 μM AMSIN", "experimental": "as §1"}, "[7]": {"target": "Kv1.4 (Homo sapiens, UniProt P22459)", "sequence (P22459 whole entry)": "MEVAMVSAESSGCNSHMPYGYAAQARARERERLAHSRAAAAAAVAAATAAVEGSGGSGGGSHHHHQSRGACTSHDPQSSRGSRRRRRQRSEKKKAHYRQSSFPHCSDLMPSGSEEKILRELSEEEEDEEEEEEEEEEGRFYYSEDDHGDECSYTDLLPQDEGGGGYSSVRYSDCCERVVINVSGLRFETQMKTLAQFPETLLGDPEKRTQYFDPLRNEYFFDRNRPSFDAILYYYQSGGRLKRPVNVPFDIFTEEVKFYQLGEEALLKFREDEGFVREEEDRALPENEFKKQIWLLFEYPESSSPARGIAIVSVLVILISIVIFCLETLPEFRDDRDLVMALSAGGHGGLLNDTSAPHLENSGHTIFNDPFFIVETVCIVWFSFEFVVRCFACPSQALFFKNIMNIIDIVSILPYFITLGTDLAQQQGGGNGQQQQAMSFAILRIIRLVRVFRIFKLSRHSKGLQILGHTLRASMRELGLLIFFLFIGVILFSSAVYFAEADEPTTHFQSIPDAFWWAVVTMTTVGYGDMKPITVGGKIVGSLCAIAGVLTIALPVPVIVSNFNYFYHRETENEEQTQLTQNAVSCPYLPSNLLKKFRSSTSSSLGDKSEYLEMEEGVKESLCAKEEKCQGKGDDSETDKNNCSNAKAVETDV", "conditions": "100 μM AMSIN", "experimental": "as §1"}, "[8]": {"test_system": "fresh erythrocytes from the female ICR mice", "experiment": "Hemolysis assay", "assay_type": "cell-based, Mus musculus", "method": "Hemolytic activity of peptides against fresh erythrocytes from the female ICR mice (Mus musculus) (25 g, 6 weeks of age) was assayed according to the standard method (Zhu et al, [2012]). Peptides were diluted with 0.9% NaCl to the indicated concentration. The percentage of hemolysis is determined as (A pep–A blank)/(A tot–A blank) × 100, in which “A” represents absorbance measured at 570 nm. A blank and A pep were evaluated in the absence or presence of peptides. One hundred percent hemolysis (A tot) was obtained in the presence of 1% Triton X‐100."}, "[9]": {"test_system": "HL‐60 cells", "experiment": "Peptide-induced MCP-1 release (ELISA)", "assay_type": "cell-based, human", "conditions": "24 h", "experimental": "A549 and HL‐60 cells were purchased from the Cell Resource Center of the Chinese Academy of Medical Sciences (Beijing, China). They were tested for mycoplasma contamination with the Mycoplasma Detection Kit (Solarbio, China) and only negative cultures were used in our experiments. The cells were cultured in complete Dulbecco’s Modified Eagle Medium (DMEM) supplemented with 10% fetal bovine serum (FBS), penicillin (100 units/ml), and streptomycin ([…]) at 37°C in 5% CO2. The culture medium was changed every 2 days. Cells were passaged every 4–5 days with 0.25% trypsin (Gibco, USA). For enzyme‐linked immunosorbent assay (ELISA) (Hara et al, [2008]), A549 or HL‐60 cells were seeded in six‐well plates at a density of 1 × 10^5 cells/well and were incubated at 37°C in 5% CO2 overnight. Medium was aspirated and replaced with fresh complete DMEM supplemented with 10% FBS or serum‐free medium, both containing different concentrations of polypeptides for 24 h. Then, the supernatants were harvested for quantification of the IL‐8 amount in A549 by the Human CXCL8/IL‐8 Quantikine ELISA Kit (R&D Systems Inc., Minneapolis, MN, USA) and the MCP‐1 amount in HL‐60 by the Human MCP‐1 ELISA Kit (Boster Biological Technology Co., Ltd, Wuhan, China) as per the manufactures’ instructions."}},
  "note": "Where a SMILES comes first, the peptide text is derived from it. Bridges are numbered along the chain shown (N, C = ends).",
  "data": [
    {"smiles": "CC[C@H](C)[C@@H]1NC(=O)[C@H](CCCCN)NC(=O)CNC(=O)[C@H](CCCNC(=N)N)NC(=O)[C@@H]2CSSC[C@H](NC(=O)CNC(=O)[C@H](Cc3ccccc3)NC(=O)CN)C(=O)N3CCC[C@H]3C(=O)N[C@@H](Cc3c[nH]c4ccccc34)C(=O)N[C@@H](CC(N)=O)C(=O)N[C@@H](C)C(=O)N[C@@H](Cc3ccc(O)cc3)C(=O)N[C@@H](CCC(=O)O)C(=O)N[C@H]3CSSC[C@H](NC(=O)[C@H]([C@@H](C)O)NC(=O)[C@H](CCC(N)=O)NC(=O)[C@H](CCCNC(=N)N)NC1=O)C(=O)N[C@@H](Cc1c[nH]cn1)C(=O)N[C@H](C(=O)N[C@@H](Cc1ccc(O)cc1)C(=O)O)CSSC[C@H](NC(=O)[C@H](Cc1c[nH]cn1)NC(=O)[C@H](CCCNC(=N)N)NC(=O)[C@H](CC(=O)O)NC3=O)C(=O)N[C@@H](C(C)C)C(=O)N[C@@H](CO)C(=O)N[C@@H](CCCCN)C(=O)NCC(=O)N[C@@H](Cc1ccc(O)cc1)C(=O)N[C@@H]([C@@H](C)O)C(=O)NCC(=O)NCC(=O)N[C@@H](CC(N)=O)C(=O)N2", "note": "[AMSIN] (H-GFGCPWNAYECDRHCVSKGYTGGNCRGKIRQTCHCY-OH; disulfide 4-25, 11-33, 15-35; N-terminus and C-terminus assumed)", "values": [
      {"measurement": "Log10 (CFU per lung)", "setting": "[1]; 8.35 mg/kg i.m. 24 h after intranasal SP D39, lungs at 48 h post‐infection, animal 1", "result": "3.3 Log10 (CFU per lung)"},
      {"measurement": "Log10 (CFU per lung)", "setting": "[1]; 8.35 mg/kg i.m., animal 2", "result": "3.48 Log10 (CFU per lung)"},
      {"measurement": "Log10 (CFU per lung)", "setting": "[1]; 8.35 mg/kg i.m., animal 3", "result": "3.3 Log10 (CFU per lung)"},
      {"measurement": "Log10 (CFU per lung)", "setting": "[1]; 8.35 mg/kg i.m., animal 4", "result": "3 Log10 (CFU per lung)"},
      {"measurement": "Log10 (CFU per lung)", "setting": "[1]; 8.35 mg/kg i.m., animal 5", "result": "3.78 Log10 (CFU per lung)"},
      {"measurement": "Log10 (CFU per lung)", "setting": "[1]; 16.7 mg/kg i.m., animal 1", "result": "3.89 Log10 (CFU per lung)"},
      {"measurement": "Log10 (CFU per lung)", "setting": "[1]; 16.7 mg/kg i.m., animal 2", "result": "1.48 Log10 (CFU per lung)"},
      {"measurement": "Log10 (CFU per lung)", "setting": "[1]; 16.7 mg/kg i.m., animal 3", "result": "1 Log10 (CFU per lung)"},
      {"measurement": "Log10 (CFU per lung)", "setting": "[1]; 16.7 mg/kg i.m., animal 4", "result": "4.2 Log10 (CFU per lung)"},
      {"measurement": "Log10 (CFU per lung)", "setting": "[1]; 16.7 mg/kg i.m., animal 5", "result": "1.6 Log10 (CFU per lung)"},
      {"measurement": "Log10 (CFU per lung)", "setting": "[1]; 33 mg/kg i.m., animal 1", "result": "1 Log10 (CFU per lung)"},
      {"measurement": "Log10 (CFU per lung)", "setting": "[1]; 33 mg/kg i.m., animal 2", "result": "1.3 Log10 (CFU per lung)"},
      {"measurement": "Log10 (CFU per lung)", "setting": "[1]; 33 mg/kg i.m., animal 3", "result": "1 Log10 (CFU per lung)"},
      {"measurement": "Log10 (CFU per lung)", "setting": "[1]; 33 mg/kg i.m., animal 4", "result": "1.3 Log10 (CFU per lung)"},
      {"measurement": "Log10 (CFU per lung)", "setting": "[1]; 33 mg/kg i.m., animal 5", "result": "1.48 Log10 (CFU per lung)"},
      {"measurement": "Reduction of CFU in lungs", "setting": "[1]; different doses (8.35, 16.7, 33 mg per kg i.m.)", "result": "4.6–6.7 log10"},
      {"measurement": "Toxicity of administration route in the model", "setting": "[1]; intramuscular injection (i.m.)", "result": "no obvious toxicity"},
      {"measurement": "Effect on channel current", "setting": "[2]", "result": "no any effect"},
      {"measurement": "Effect on channel current", "setting": "[3]", "result": "no any effect"},
      {"measurement": "Effect on channel current", "setting": "[4]", "result": "no any effect"},
      {"measurement": "Effect on channel current", "setting": "[5]", "result": "no any effect"},
      {"measurement": "Effect on channel current", "setting": "[6]", "result": "no any effect"},
      {"measurement": "Effect on channel current", "setting": "[7]", "result": "no any effect"},
      {"measurement": "Hemolysis (%)", "setting": "[8]; 6.25 μM, absorbance 570 nm, 100% = 1% Triton X‐100, technical replicate 1", "result": 1.49, "unit": "%"},
      {"measurement": "Hemolysis (%)", "setting": "[8]; 6.25 μM, technical replicate 2", "result": 1.24, "unit": "%"},
      {"measurement": "Hemolysis (%)", "setting": "[8]; 6.25 μM, technical replicate 3", "result": 1.65, "unit": "%"},
      {"measurement": "Hemolysis (%)", "setting": "[8]; 12.5 μM, technical replicate 1", "result": 2.48, "unit": "%"},
      {"measurement": "Hemolysis (%)", "setting": "[8]; 12.5 μM, technical replicate 2", "result": 1.98, "unit": "%"},
      {"measurement": "Hemolysis (%)", "setting": "[8]; 12.5 μM, technical replicate 3", "result": 2.04, "unit": "%"},
      {"measurement": "Hemolysis (%)", "setting": "[8]; 25 μM, technical replicate 1", "result": 6.96, "unit": "%"},
      {"measurement": "Hemolysis (%)", "setting": "[8]; 25 μM, technical replicate 2", "result": 5.2, "unit": "%"},
      {"measurement": "Hemolysis (%)", "setting": "[8]; 25 μM, technical replicate 3", "result": 5.2, "unit": "%"},
      {"measurement": "MCP-1", "setting": "[9]; FBS-containing medium, 25 μg/mL, replicate 1", "result": 380, "unit": "pg/mL"},
      {"measurement": "MCP-1", "setting": "[9]; FBS-containing medium, 25 μg/mL, replicate 2", "result": 485, "unit": "pg/mL"},
      {"measurement": "MCP-1", "setting": "[9]; FBS-containing medium, 25 μg/mL, replicate 3", "result": 359, "unit": "pg/mL"},
      {"measurement": "MCP-1", "setting": "[9]; FBS-containing medium, 50 μg/mL, replicate 1", "result": 453, "unit": "pg/mL"},
      {"measurement": "MCP-1", "setting": "[9]; FBS-containing medium, 50 μg/mL, replicate 2", "result": 523, "unit": "pg/mL"},
      {"measurement": "MCP-1", "setting": "[9]; FBS-containing medium, 50 μg/mL, replicate 3", "result": 432, "unit": "pg/mL"},
      {"measurement": "MCP-1", "setting": "[9]; FBS-containing medium, 100 μg/mL, replicate 1", "result": 419, "unit": "pg/mL"},
      {"measurement": "MCP-1", "setting": "[9]; FBS-containing medium, 100 μg/mL, replicate 2", "result": 423, "unit": "pg/mL"},
      {"measurement": "MCP-1", "setting": "[9]; FBS-containing medium, 100 μg/mL, replicate 3", "result": 398, "unit": "pg/mL"},
      {"measurement": "MCP-1", "setting": "[9]; Serum-Free medium, 25 μg/mL, replicate 1", "result": 393, "unit": "pg/mL"},
      {"measurement": "MCP-1", "setting": "[9]; Serum-Free medium, 25 μg/mL, replicate 2", "result": 431, "unit": "pg/mL"},
      {"measurement": "MCP-1", "setting": "[9]; Serum-Free medium, 25 μg/mL, replicate 3", "result": 372, "unit": "pg/mL"},
      {"measurement": "MCP-1", "setting": "[9]; Serum-Free medium, 50 μg/mL, replicate 1", "result": 447, "unit": "pg/mL"},
      {"measurement": "MCP-1", "setting": "[9]; Serum-Free medium, 50 μg/mL, replicate 2", "result": 450, "unit": "pg/mL"},
      {"measurement": "MCP-1", "setting": "[9]; Serum-Free medium, 50 μg/mL, replicate 3", "result": 426, "unit": "pg/mL"},
      {"measurement": "MCP-1", "setting": "[9]; Serum-Free medium, 100 μg/mL, replicate 1", "result": 418, "unit": "pg/mL"},
      {"measurement": "MCP-1", "setting": "[9]; Serum-Free medium, 100 μg/mL, replicate 2", "result": 427, "unit": "pg/mL"},
      {"measurement": "MCP-1", "setting": "[9]; Serum-Free medium, 100 μg/mL, replicate 3", "result": 397, "unit": "pg/mL"}
    ]}
  ]
}
